Data set [1] in a line: in vivo. As to conditions: for MTD: NIH-III nude, mouse, in vivo, ip, i.p., read-out: Maximum tolerated dose (MTD). It counts as in vivo, mice. An excerpt: NfsA_Ec potency and bystander effect from the diffusion of activated metabolites is only one determinant of the therapeutic utility of a GDEPT prodrug. Overall, anti-tumor activity will also depend on the efficiency of metabolic activation at well-tolerated prodrug doses, determined mainly by the relationship between host toxicity and plasma/tumor pharmacokinetics. Like PR-104A, the three lead prodrugs (1, 2, and 6) contain an alcohol side chain that requires addition of a phosphate ester to increase water solubility for in vivo applications. […] Employing identical methods, we determined the MTD of compounds 2-P and 6-P to be 1000 µmol/kg and 1330 µmol/kg, respectively (data summary in Table S1). In preparation for efficacy testing against H1299 xenografts, we next determined the MTD of each compound (1-P, 2-P, and 6-P) in H1299 tumor-bearing mice to be 1330 µmol/kg, 750 µmol/kg, and 1330 µmol/kg, respectively (Table S1). In each case 1-P, 2-P, and 6-P administration (i.p.) was well tolerated, with no evidence of morbidity or mortality, accompanied by a minimal body weight loss (BWL) nadir of −2.2%, −4.0%, and −5.3%, respectively (MTD defined as <−15% average BWL).
(§1) An estimated starting dose was determined from related compounds. Animals were promptly euthanized if body weight loss exceeded 20% or if there were clinical signs of severe morbidity. The MTD was defined as the highest dose, at which all animals survived (death rate < 1/6) with no unacceptable morbidity, and where the next dose increment had caused at least one death. Tumors were inoculated onto the flanks of NIH-III nude mice by subcutaneous injection of 10^7 H1299 cells. Tumor-bearing mice were randomized to treatment groups (n = 5 mice per group) when tumors reached treatment size (300–350 mm^3) and injected with a single intraperitoneal dose of pre-prodrug. Tumor size and body weights were measured regularly. Tumor volume was calculated as π(Lxw^2)/6, where L is the major axis and w is the perpendicular minor axis. Animals were euthanized when the tumor volume had increased fourfold relative to pre-treatment volume (RTV4, survival endpoint) or if body weight loss exceeded 20% of the pre-treatment value. Kaplan–Meier plots were constructed, and median time to endpoint was calculated. Treatment efficacy was assessed by comparing the median survival time with untreated animals using the Log-rank test p-test (Sigmaplot version 11.0).
Supplementary Table S1. Summary of maximum tolerated dose of test compounds
Footnotes: BWL nadir % = body weight loss percentage (time independent nadir). HEP = humane endpoint. * =
Non-tumour bearing H1299 tumour bearing

Data set [2] deals with SiHa xenografts. Kind of data set: Tumor excision assay, clonogenic cell kill of SiHa xenografts. Format: in vivo, mice. The note with it: 18 h after treatment, PR-104 380 µmol/kg i.p., 6-P 1330 µmol/kg i.p. On the procedure: The sensitivity of four cancer cell lines to prodrug 6 was determined under aerobic or anoxic conditions using an anti-proliferative IC50 assay. […] We also evaluated the hypoxic activity of 6-P versus PR-104 in vivo using a SiHa xenograft model (Figure 6B).
When tumors reached treatment size (>400 mm^3), mice were treated with drug by a single intraperitoneal injection of pre-prodrug or vehicle. Mice treated with ionizing radiation were exposed to 10 Gray prior to drug treatment, using a cobalt-60 source from an Eldorado G unit. Animals were euthanized 18 h after drug treatment, and tumors were excised and homogenized using sterile scissors until a fine mince was obtained. Following enzymatic dissociation (2.5 mg/mL pronase, 1 mg/mL collagenase, and 0.2 mg/mL DNAase in αMEM + 10% FBS + 1% P/S, 1 mL per 50 mg), cells were plated at concentrations of 10^2–10^5 cells per 60 mm dish and grown for 10 days before colonies were stained with methylene blue (2 g/L in 50% aqueous alcohol). Colonies containing >50 cells were counted as clonogenic survivors. From these values, plating efficiency (colonies/cells plated), number of clonogens per gram of tumor tissue (plating efficiency × total cells), and log cell kill relative to vehicle treated controls (log clonogens per gram) were calculated. Statistical analysis was undertaken using Holm–Sidak’s one-way ANOVA (Sigmaplot version 11.0).
(A) In vitro anti-proliferative activity of 6 in various cancer cell lines under aerobic and anoxic conditions. IC50 values were determined as the concentration of drug required to inhibit cell growth by 50% of untreated controls following 4 h drug exposure and five days regrowth (mean ±SEM of three or more independent determinations). (B) Clonogenic cell kill of SiHa xenografts 18 h after treatment with hypoxia activated prodrugs PR-104 (380 µmol/kg, i.p.) or 6-P (1330 µmol/kg, i.p.) with or without 10 Gy radiation.

For data set [3], the system named is mixed H1299 xenograft containing 28% NfsA_Ec cells and 72% WT cells. Kind of data set: Tumor growth delay assay, mixed H1299 xenograft. It counts as in vivo, mice. The note with it: for Survival time compared to PR-104 treated tumors: single i.p. dose: 1-P 1330 µmol/kg. On the procedure:
These ratios were broadly similar to those observed in HCT116 cells (Figure 2). A mixed H1299 xenograft model containing a minority percentage (28 ± 3.3%) of NfsA_Ec-expressing cells was used in order to rank the efficacy of the prodrugs in vivo. A model such as this necessitates the presence of a robust bystander effect to achieve a tumor growth delay. Tumor-bearing mice were administered a single intraperitoneal dose of prodrugs 1-P, 2-P, and 6-P at the H1299 tumor-bearing MTD. PR-104 was administered at 388 µmol/kg, the human equivalent dose (HED) in mice that provides a plasma AUCfree of PR-104A (38 µM-h) that equates to the human Q3W MTD of 1100 mg/m^2 [22].
as §1
Figure 5 In vivo efficacy of the three lead pre-prodrug compounds in a mixed H1299 xenograft containing 28% NfsA_Ec cells and 72% WT cells. (A) Tumor growth and (B) survival analysis of mice bearing 250 mm^3 H1299 tumors treated with a single intraperitoneal dose of prodrug on day 0. N = 5 animals per group. Control = PBS, PR-104 = 388 µmol/kg; 1-P = 1330 μmol/kg; 2-P = 750 μmol/kg; and 6-P = 1330 μmol/kg. Survival endpoint was 4× start volume (RTV4).

The conditions of data set [4]: non-tumour bearing, cited from earlier work.
Data set [5] can be described thus: LogD7.4 by low-volume octanol/PBS shake-flask method. Format: physicochemical. As to conditions: n-octanol/PBS; octanol-water partition coefficient, shake-flask method at pH 7.4. Here is the method: Distribution ratios (LogD7.4) were determined by a low-volume octanol/PBS shake-flask method. Briefly, saturated solutions of octanol and PBS were prepared by mixing equal volumes of n-octanol and PBS (pH 7.4) before being left for three days. The octanol and PBS phases were then carefully separated and left to stand for at least 24 h. Stock solutions (0.1–0.5 mM) of each compound were prepared in octanol saturated with PBS. The stock solutions were diluted with octanol saturated with PBS containing and inter-assay control (acridone) to a final compound concentration of 50 μM. Aliquots (450 μL) were then taken in triplicate, and 450 μL of PBS saturated with octanol was added into amber tubes. The tubes were then sealed in parafilm and rotated for 90 min at 30 rpm to equilibrate. After centrifugation (15,000× g, 5 min, 20°C) the octanol and PBS phases were separated into different tubes and the octanol phase diluted with methanol (1:5 v/v). Both phases were analyzed by HPLC (diode-array detector at 364 ± 10 nm) by injecting 50 μL of the PBS phase and 15 μL of the diluted octanol phase. The results were then expressed as the log ratio of the peak areas obtained from the octanol and PBS phases corrected for dilution and injection volume.

Setting [6] is: H1299 tumour bearing, dose 1330 µmol/kg.
The mark [7] stands for this setting: non-tumour bearing, dose 1330 µmol/kg.
[8] abbreviates: non-tumour bearing, dose 1780 µmol/kg.
Where [9] appears, read: H1299 tumour bearing, dose 750 µmol/kg.
[10] abbreviates: H1299 tumour bearing, dose 1000 µmol/kg.
[11] abbreviates: non-tumour bearing, dose 1000 µmol/kg.
Where [12] appears, read: H1299 tumour bearing, dose 1780 µmol/kg.

Read-outs that look alike come from different tables or passages of the source.

As usually defined, the MTD is the highest dose tested that stayed within the study's limit of toxicity. On to `CCS(=O)(=O)c1cc([N+](=O)[O-])c(C(=O)N(C)CCOP(=O)(O)O)cc1N(CCBr)CCBr` [Compound 6-P, 2-(5-(bis(2-bromoethyl)amino)-4-(ethylsulfonyl)-N-methyl-2-nitrobenzamido)ethyl dihydrogen phosphate], for which, in data set [1] (setting [6]), the BWL nadir was -5.3%, the Deaths amounted to 0, the “HEP (humane endpoint)” value is listed as 0 and the “MTD (Yes/above)” value is given as “Yes”. The MTD in data set [1] (H1299 tumor-bearing mice) is 1330 µmol/kg. Moreover, the MTD in data set [1] (nude mice, non-tumour bearing) was found to be 1330 µmol/kg. Further, in data set [1] (setting [7]), the BWL nadir is recorded as -1.8%, the Deaths is listed as 0, the “HEP (humane endpoint)” value came out at 0 and the “MTD (Yes/above)” value was “Yes”. Besides, in data set [1] (setting [8]), the Deaths stood at 0, the “HEP (humane endpoint)” value is recorded as 2 and the “MTD (Yes/above)” value is “above”. In data set [2] (10 Gy radiation), the “Log cell kill, in combination with radiotherapy” value is 4.05. Besides, in data set [2], the “Log cell kill, single agent” value was determined as 1.06. Moreover, the “Tumor growth delay compared to PR-104 treated group” value in data set [3] (single i.p. dose, 6-P 1330 µmol/kg, PR-104 388 µmol/kg) was 92%. Moreover, the “Tumor growth delay (median time to RTV4) compared to untreated controls” value in data set [3] (single i.p. dose: PR-104 388 µmol/kg, 1-P 1330 µmol/kg, 2-P 750 µmol/kg, 6-P 1330 µmol/kg) worked out at 156%.
On to `CN(CCOP(=O)(O)O)C(=O)c1cc(N(CCBr)CCBr)c(S(C)(=O)=O)cc1[N+](=O)[O-]` [Compound 2-P, 2-(5-(Bis(2-bromoethyl)amino)-N-methyl-4-(methylsulfonyl)-2-nitrobenzamido)ethyl dihydrogen phosphate], for which the BWL nadir in data set [1] (setting [9]) is given as -4.0%; in data set [1] (setting [10]), -8.7%; in data set [1] (setting [11]), -2.5%; in data set [1] (setting [7]), -10.5%. Moreover, the Deaths in data set [1] (setting [9]) is on record as 0; in data set [1] (setting [10]), 2; in data set [1] (setting [11]), 0; in data set [1] (setting [7]) it was 1. For the same compound, the “HEP (humane endpoint)” value amounted to 0 in data set [1] (setting [9]), 0 in data set [1] (setting [10]), 0 in data set [1] (setting [11]) and 1 in data set [1] (setting [7]). Also, the “MTD (Yes/above)” value in data set [1] (setting [9]) is “Yes”; in data set [1] (setting [10]) it was “above”; in data set [1] (setting [11]), “Yes”; in data set [1] (setting [7]), “above”. The MTD in data set [1] (H1299 tumor-bearing mice) stood at 750 µmol/kg; in data set [1] (nude mice, non-tumour bearing), 1000 µmol/kg. The “Survival time compared to PR-104 treated tumors” value in data set [3] (2-P 750 µmol/kg) is recorded as “did not produce an improvement in survival time”.
With `CS(=O)(=O)c1cc([N+](=O)[O-])c(C(=O)NCCOP(=O)(O)O)cc1N(CCBr)CCBr` [Compound 1-P], the BWL nadir in data set [1] (setting [6]) was -2.2%; in data set [1] (setting [12]), -7.6%; in data set [4] (dose 1780 µmol/kg), -2.8%; in data set [4] (dose 2370 µmol/kg), -6.9%. In addition, the Deaths is listed as 0 in data set [1] (setting [6]), 1 in data set [1] (setting [12]), 0 in data set [4] (dose 1780 µmol/kg) and 2 in data set [4] (dose 2370 µmol/kg). Moreover, the “HEP (humane endpoint)” value in data set [1] (setting [6]) is on record as 0; in data set [1] (setting [12]), 1; in data set [4] (dose 1780 µmol/kg) it was 0; in data set [4] (dose 2370 µmol/kg), 0. The “MTD (Yes/above)” value in data set [1] (setting [6]) is on record as “Yes”; in data set [1] (setting [12]), “above”; in data set [4] (dose 1780 µmol/kg) it was “Yes”; in data set [4] (dose 2370 µmol/kg), “above”. The MTD in data set [1] (H1299 tumor-bearing mice) was determined as 1330 µmol/kg. Moreover, the “Survival time compared to PR-104 treated tumors” value in data set [3] (2-P 750 µmol/kg) is recorded as “did not produce an improvement in survival time”. In addition, the “Maximum tolerated dose (MTD)” value in data set [4] (nude mice, i.p.) is given as 1780 µmol/kg.
By melting point is commonly meant the temperature, or range, at which the solid turns liquid. In turn, `CCCS(=O)(=O)c1cc([N+](=O)[O-])c(C(=O)NCCO)cc1N(CCBr)CCBr` [Compound 8] registered a melting point of 128 to 129 °C.
What is called logD is lipophilicity at a set pH, counting ionised and neutral species. Lower therefore signals a more hydrophilic compound. Take `CCN(CCO)C(=O)c1cc(N(CCBr)CCBr)c(S(C)(=O)=O)cc1[N+](=O)[O-]` [Compound 3]: in data set [5], the logD at 90 min stood at 1.6.
With `CCS(=O)(=O)c1cc([N+](=O)[O-])c(C(=O)NCCO)cc1N(CCBr)CCBr` [Compound 5, 5-(Bis(2-bromoethyl)amino)-N-(2-hydroxyethyl)-4-(ethylsulfonyl)-2-nitrobenzamide], the melting point lay in the range of 137 to 140 °C. The compound also came in with a logD at 90 min in data set [5] of 1.5.

Values taken from publication PMC8877822, “Interrogation of the Structure–Activity Relationship of a Lipophilic Nitroaromatic Prodrug Series Designed for Cancer Gene Therapy Applications” (Pharmaceuticals, 2022).
